Patent US5395947A, “Platinum(II) complex and processes for preparing the same” (Sunkyong Industries, Ltd., priority 1991, dated 1995)

Tests used:
[1] = system: murine leukemia L1210 cells; experiment: Growth inhibition test on cultured murine leukemia L1210 cells; type: cell-based; settings: 48 hours, 37° C., Trypan blue viability
Experimental: 1. Growth inhibition test on cultured murine leukemia L1210 cells
Murine leukemia L1210 cells(1×10^5) were treated with various concentrations of the compounds prepared in the above examples in RPMI 1640 medium supplemented with 10% fetal calf serum, and cultured in a 5% CO2 humidified incubator at 37° C. for 48 hours. Their viability, estimated by staining with 0.17% Trypan blue, was compared with that of control cells cultured in the identical medium without the compounds.

murine leukemia L1210 = experiment: Antitumor activity test on murine leukemia L1210 in vivo; set-up: species or system male BDF1 mice; settings: days 1, 5, 9
Experimental: 2. Antitumor activity test on murine leukemia L1210 in vivo
Murine leukemia L1210 cells were maintained in the peritoneal cavities of 6-week-old male DBA/2 mice by weekly transfer in accordance with the procedure described in cancer chemotherapy Reports, Part 3, 3(2), 7 (1972). Specifically, 1×10^6 leukemia cells were inoculated into the abdominal cavities of 6-week-old male BDF1 mice weighing 21±3 g on day 0. Each treatment group consisted of seven mice. The test compounds were dissolved or suspended in 0.5% carboxymethyl cellulose(CMC)solution (in water) and were administered intraperitoneally on days 1, 5, and 9 relative to the tumor inoculation.
Thirty mice of 6-week-old male BDF1 weighing 21±3 g were used as the control group, which were injected with 0.5% CMC solution only in the same manner as above.
Anti-tumor activities of the compounds were evaluated in terms of the T/C % values calculated from the mean survival time(T) of the compound-treated group over that(C) of the control group. [formula]

[2] = Test for water solubility; type: physicochemical; settings: water
Excerpt: 3. Test for water solubility
A standard plot of UV absorbance(220 nm) vs. concentration was made; and employed to determine water-solubility.
The mixture was then passed through a 0.45 micron disposable membrane filter before dilution and UV measurement.

ICR mice = experiment: Acute toxicity test; type: in vivo; set-up: Lethality: unit not given here; settings: for Lethality: 10080 min
Experimental: 7-week-old ICR mice(male: 34±2 g; female: 31±2 g) were fed with solid food and water under the condition of 23±1° C. temperature and 65±5% humidity before the test.
Each treatment group consisted of 6 mice. The test compounds were administered intraperitoneally.
For 7 days after the administration, the appearance and the fate of the tested animals were recorded. The dead animals were subjected to autopsy and their visible pathological changes were observed. Their viscerals were stored in 10% formalin solution.

With `O=C1[O][Pt-2]2([NH2+]CC3OCOC3C[NH2+]2)[O]C(=O)C12CCC2` [Example 20, cis-cyclobutane-1,1-dicarboxylato [(4R,5R)-4,5-bis(aminomethyl)-1,3-dioxolane]platinum (II)] the “IC50 (concentration required for 50% inhibition of growth)” value [1] was 1.28 µg/mL, the “T/C (%)” value (murine leukemia L1210; 6.2 mg/kg i.p.) was 122% and the “T/C (%)” value (murine leukemia L1210; 12.5 mg/kg i.p.) was 187%. The “T/C (%)” value (murine leukemia L1210; 25 mg/kg i.p.) was 137%, the “T/C (%)” value (murine leukemia L1210; 50 mg/kg i.p.) was 193% and the “T/C (%)” value (murine leukemia L1210; 100 mg/kg i.p.) was 271%. For the same molecule, the Solubility in water [2] was 3100 µg/mL, the “Number of dead mice for 7 days” value (ICR mice; female, 94 mg/kg i.p.) was 0/6 and the “Number of dead mice, 1st day” value (ICR mice; female, 94 mg/kg i.p.) was 0/6. For the same molecule, the “Number of dead mice for 7 days” value (ICR mice; female, 123 mg/kg i.p.) was 2/6, the “Number of dead mice, 1st day” value (ICR mice; female, 123 mg/kg i.p.) was 0/6 and the “Number of dead mice, 4th day” value (ICR mice; female, 123 mg/kg i.p.) was 2/6. The Lethality (ICR mice; female, 123 mg/kg i.p.) was 33.3, the “Number of dead mice for 7 days” value (ICR mice; female, 160 mg/kg i.p.) was 4/6 and the “Number of dead mice, 1st day” value (ICR mice; female, 160 mg/kg i.p.) was 0/6. For the same molecule, the “Number of dead mice, 4th day” value (ICR mice; female, 160 mg/kg i.p.) was 2/6, the “Number of dead mice, 5th day” value (ICR mice; female, 160 mg/kg i.p.) was 2/4 and the Lethality (ICR mice; female, 160 mg/kg i.p.) was 66.7. For the same molecule, the “Number of dead mice for 7 days” value (ICR mice; female, 208 mg/kg i.p.) was 6/6, the “Number of dead mice, 1st day” value (ICR mice; female, 208 mg/kg i.p.) was 0/6 and the “Number of dead mice, 3rd day” value (ICR mice; female, 208 mg/kg i.p.) was 1/6. The “Number of dead mice, 4th day” value (ICR mice; female, 208 mg/kg i.p.) was 5/5, the Lethality (ICR mice; female, 208 mg/kg i.p.) was 100.0 and the “Number of dead mice for 7 days” value (ICR mice; female, 270 mg/kg i.p.) was 6/6. For the same molecule, the “Number of dead mice, 1st day” value (ICR mice; female, 270 mg/kg i.p.) was 0/6, the “Number of dead mice, 2nd day” value (ICR mice; female, 270 mg/kg i.p.) was 4/6 and the “Number of dead mice, 3rd day” value (ICR mice; female, 270 mg/kg i.p.) was 2/2. The Lethality (ICR mice; female, 270 mg/kg i.p.) was 100.0, the “Number of dead mice for 7 days” value (ICR mice; male, 94 mg/kg i.p.) was 0/6 and the “Number of dead mice, 1st day” value (ICR mice; male, 94 mg/kg i.p.) was 0/6. For the same molecule, the “Number of dead mice for 7 days” value (ICR mice; male, 123 mg/kg i.p.) was 2/6, the “Number of dead mice, 1st day” value (ICR mice; male, 123 mg/kg i.p.) was 1/6 and the “Number of dead mice, 5th day” value (ICR mice; male, 123 mg/kg i.p.) was 1/5. For the same molecule, the Lethality (ICR mice; male, 123 mg/kg i.p.) was 33.3, the “Number of dead mice for 7 days” value (ICR mice; male, 160 mg/kg i.p.) was 5/6 and the “Number of dead mice, 1st day” value (ICR mice; male, 160 mg/kg i.p.) was 0/6. For the same molecule, the “Number of dead mice, 4th day” value (ICR mice; male, 160 mg/kg i.p.) was 2/6, the “Number of dead mice, 5th day” value (ICR mice; male, 160 mg/kg i.p.) was 1/4 and the “Number of dead mice, 6th day” value (ICR mice; male, 160 mg/kg i.p.) was 2/3. For the same molecule, the Lethality (ICR mice; male, 160 mg/kg i.p.) was 83.3, the “Number of dead mice for 7 days” value (ICR mice; male, 208 mg/kg i.p.) was 6/6 and the “Number of dead mice, 1st day” value (ICR mice; male, 208 mg/kg i.p.) was 0/6. The “Number of dead mice, 4th day” value (ICR mice; male, 208 mg/kg i.p.) was 6/6, the Lethality (ICR mice; male, 208 mg/kg i.p.) was 100.0 and the “Number of dead mice for 7 days” value (ICR mice; male, 270 mg/kg i.p.) was 6/6. For the same molecule, the “Number of dead mice, 1st day” value (ICR mice; male, 270 mg/kg i.p.) was 0/6, the “Number of dead mice, 2nd day” value (ICR mice; male, 270 mg/kg i.p.) was 4/6 and the “Number of dead mice, 3rd day” value (ICR mice; male, 270 mg/kg i.p.) was 2/2. For the same molecule, the Lethality (ICR mice; male, 270 mg/kg i.p.) was 100.0.

With `NC[C@H]1OC2(CCCC2)O[C@@H]1CN.O=C1C[O][Pt][O]1` [Example 3, (glycolato-O,O')[(4R,5R)-4,5-bis(aminomethyl)-1,3-dioxolane-2-spiro-1'-cyclopentane]platinum (II)] the “IC50 (concentration required for 50% inhibition of growth)” value [1] was 0.10 µg/mL, the “T/C (%)” value (murine leukemia L1210; 3.1 mg/kg i.p.) was 154% and the “T/C (%)” value (murine leukemia L1210; 6.2 mg/kg i.p.) was 161%. The “T/C (%)” value (murine leukemia L1210; 12.5 mg/kg i.p.) was 295%, the “T/C (%)” value (murine leukemia L1210; 25 mg/kg i.p.) was “toxic” and the “T/C (%)” value (murine leukemia L1210; 50 mg/kg i.p.) was “toxic”. The Solubility in water [2] was 5800 µg/mL, the “Number of dead mice for 7 days” value (ICR mice; female, 25.0 mg/kg i.p.) was 0/6 and the “Number of dead mice, 1st day” value (ICR mice; female, 25.0 mg/kg i.p.) was 0/6. For the same molecule, the “Number of dead mice for 7 days” value (ICR mice; female, 32.5 mg/kg i.p.) was 0/6, the “Number of dead mice, 1st day” value (ICR mice; female, 32.5 mg/kg i.p.) was 0/6 and the “Number of dead mice for 7 days” value (ICR mice; female, 42.3 mg/kg i.p.) was 2/6. The “Number of dead mice, 1st day” value (ICR mice; female, 42.3 mg/kg i.p.) was 0/6, the “Number of dead mice, 4th day” value (ICR mice; female, 42.3 mg/kg i.p.) was 1/6 and the “Number of dead mice, 5th day” value (ICR mice; female, 42.3 mg/kg i.p.) was 1/5. The Lethality (ICR mice; female, 42.3 mg/kg i.p.) was 33.3, the “Number of dead mice for 7 days” value (ICR mice; female, 55.0 mg/kg i.p.) was 5/6 and the “Number of dead mice, 1st day” value (ICR mice; female, 55.0 mg/kg i.p.) was 0/6. The “Number of dead mice, 3rd day” value (ICR mice; female, 55.0 mg/kg i.p.) was 4/6, the “Number of dead mice, 4th day” value (ICR mice; female, 55.0 mg/kg i.p.) was 1/2 and the Lethality (ICR mice; female, 55.0 mg/kg i.p.) was 83.2. For the same molecule, the “Number of dead mice for 7 days” value (ICR mice; female, 71.4 mg/kg i.p.) was 6/6, the “Number of dead mice, 1st day” value (ICR mice; female, 71.4 mg/kg i.p.) was 0/6 and the “Number of dead mice, 3rd day” value (ICR mice; female, 71.4 mg/kg i.p.) was 4/6. The “Number of dead mice, 4th day” value (ICR mice; female, 71.4 mg/kg i.p.) was 2/2, the Lethality (ICR mice; female, 71.4 mg/kg i.p.) was 100.0 and the “Number of dead mice for 7 days” value (ICR mice; male, 25.0 mg/kg i.p.) was 0/6. The “Number of dead mice, 1st day” value (ICR mice; male, 25.0 mg/kg i.p.) was 0/6, the “Number of dead mice for 7 days” value (ICR mice; male, 32.5 mg/kg i.p.) was 0/6 and the “Number of dead mice, 1st day” value (ICR mice; male, 32.5 mg/kg i.p.) was 0/6. For the same molecule, the “Number of dead mice, 4th day” value (ICR mice; male, 32.5 mg/kg i.p.) was 1/6, the “Number of dead mice for 7 days” value (ICR mice; male, 42.3 mg/kg i.p.) was 2/6 and the “Number of dead mice, 1st day” value (ICR mice; male, 42.3 mg/kg i.p.) was 0/6. The “Number of dead mice, 4th day” value (ICR mice; male, 42.3 mg/kg i.p.) was 1/6, the Lethality (ICR mice; male, 42.3 mg/kg i.p.) was 33.3 and the “Number of dead mice for 7 days” value (ICR mice; male, 55.0 mg/kg i.p.) was 6/6. The “Number of dead mice, 1st day” value (ICR mice; male, 55.0 mg/kg i.p.) was 0/6, the “Number of dead mice, 3rd day” value (ICR mice; male, 55.0 mg/kg i.p.) was 4/6 and the “Number of dead mice, 4th day” value (ICR mice; male, 55.0 mg/kg i.p.) was 1/2. For the same molecule, the “Number of dead mice, 5th day” value (ICR mice; male, 55.0 mg/kg i.p.) was 1/1, the Lethality (ICR mice; male, 55.0 mg/kg i.p.) was 100.0 and the “Number of dead mice for 7 days” value (ICR mice; male, 71.4 mg/kg i.p.) was 6/6. The “Number of dead mice, 1st day” value (ICR mice; male, 71.4 mg/kg i.p.) was 0/6, the “Number of dead mice, 3rd day” value (ICR mice; male, 71.4 mg/kg i.p.) was 4/6 and the “Number of dead mice, 4th day” value (ICR mice; male, 71.4 mg/kg i.p.) was 2/2. It also gave a Lethality (ICR mice; male, 71.4 mg/kg i.p.) of 100.0.
